Literature values, collected in patent publication US20060287529A1, “Solid phase synthesis of antitumoral compounds” (priority 2003, published 2006).

Experiments:
lung cancer cell lines = details: acting as a Type IV microtubule poison; background statement
P388 cell line = P388 cell line in culture; background statement
A549 cell line = A549 cell line in culture; background statement
fertilised sea urchin = fertilised sea urchin assay; background statement

Molecule | activity in lung cancer cell lines (lung cancer cell lines) | cytotoxicity (P388 cell line) | cytotoxicity (A549 cell line) | inhibition of cell division (fertilised sea urchin)
COc1ccc(-c2c3c4cc(OC)c(O)cc4oc(=O)c3n3ccc4cc(O)c(OC)cc4c23)cc1O [lamellarin N, 3,10-dihydroxy-2,12-dimethoxy-14-(3′-hydroxy-4′-methoxy-phenyl)-6H-[1]benzopyrano[4′,3′:4,5]pyrrolo[2,1-α]isoquinolin-6-one] | exhibit activity |  |  | 
lamellarin K |  | comparable cytoxicity | comparable cytoxicity | 
lamellarin I |  | comparable cytoxicity | comparable cytoxicity | 
lamellarin D |  |  |  | inhibition of cell division
COc1cc(-c2c3n(c4c(=O)oc5cc(O)c(OC)cc5c24)CCc2c-3cc(OC)c(OC)c2OC)ccc1O [lamellarin C] |  |  |  | inhibition of cell division
COc1ccc(-c2c3n(c4c(=O)oc5cc(O)c(OC)cc5c24)CCc2cc(O)c(OC)cc2-3)cc1O [lamellarin L, 8,9-dihydro-3,11-dihydroxy-2,12-dimethoxy-14-(3′-hydroxy-4′-methoxy-phenyl)-6H-[1]benzopyrano[4′,3′:4,5]pyrrolo[2,1-α]isoquinolin-6-one] |  | comparable cytoxicity | comparable cytoxicity | 
